Results: ChEMBL document CHEMBL1201862, “PubChem BioAssay data set” (2004)
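A five-concentration, 48-hour dose response in 96-well plates underlies each endpoint, interpolated linearly between surrounding concentrations. Abbreviation: GI50, concentration required for 50% inhibition of growth.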 Active and inactive are the calls of the source. No stated cut-off is given here; in the data, active = GI50 up to about 1.1 µM and inactive = higher.

How the values were obtained:
Experiment in all cases: NCI-60 cell line screen, 48 h
A498 = system: A498
ACHN = system: ACHN
CCRF-CEM = system: CCRF-CEM
DU-145 = system: DU-145
HCT-15 = system: HCT-15
HL-60 = system: HL-60
Hs-578T = system: Hs-578T
KM12 = system: KM12
MCF7 = system: MCF7
MDA-MB-231 = system: MDA-MB-231
MDA-MB-435 = system: MDA-MB-435
MDA-N = system: MDA-N
NCI-H226 = system: NCI-H226
NCI-H23 = system: NCI-H23
NCI-H522 = system: NCI-H522
PC-3 = system: PC-3
SF-268 = system: SF-268
SF-295 = system: SF-295
UACC-257 = system: UACC-257
UO-31 = system: UO-31

Row | Structure (SMILES) | GI50 (A498) | GI50 (ACHN) | GI50 (CCRF-CEM) | GI50 (DU-145) | GI50 (HCT-15) [µM] | GI50 (HL-60) | GI50 (Hs-578T) | GI50 (KM12) | GI50 (MCF7) | GI50 (MDA-MB-231) | GI50 (MDA-MB-435) | GI50 (MDA-N) | GI50 (NCI-H226) | GI50 (NCI-H23) | GI50 (NCI-H522) | GI50 (PC-3) | GI50 (SF-268) | GI50 (SF-295) | GI50 (UACC-257) | GI50 (UO-31)
1 | CCCCCCCCCC(O)CC(=O)c1c(O)cccc1O (stereo not given) | 30.5 µM (inactive) | 24.1 µM (inactive) | 46.3 µM (inactive) | 38 µM (inactive) | 18.2 | 22.2 µM (inactive) | 18.6 µM (inactive) | 19.3 µM (inactive) | 26.8 µM (inactive) | 21.4 µM (inactive) | 25.9 µM (inactive) | 22 µM (inactive) | 17.4 µM (inactive) | 22 µM (inactive) | 19 µM (inactive) | 18.7 µM (inactive) | 17.7 µM (inactive) | 19.4 µM (inactive) | 19.5 µM (inactive) | 19.3 µM (inactive)
2 | NC(=S)N/N=C\CC(O)(C(F)(F)F)C(F)(F)F | > 10 µM (inactive) | > 10 µM (inactive) | > 10 µM (inactive) | > 10 µM (inactive) | > 10 | > 10 µM (inactive) | > 10 µM (inactive) | > 10 µM (inactive) | > 10 µM (inactive) | > 10 µM (inactive) | > 10 µM (inactive) | > 10 µM (inactive) | > 10 µM (inactive) | > 10 µM (inactive) | > 10 µM (inactive) | > 10 µM (inactive) | > 10 µM (inactive) | > 10 µM (inactive) | > 10 µM (inactive) | > 10 µM (inactive)
3 | COc1cc(/C=C2\CCC/C(=C\c3ccc(O)c(OC)c3)C2=O)ccc1O [CYCLOVALONE] | 3.99 µM (inactive) | 2.06 µM (inactive) | 0.525 µM (active) | 3.47 µM (inactive) | 2.34 | 1.47 µM (inactive) | 4.16 µM (inactive) | 2.87 µM (inactive) | 4.33 µM (inactive) | 5.96 µM (inactive) | 3.13 µM (inactive) | 2.42 µM (inactive) | 6.17 µM (inactive) | 6.75 µM (inactive) | 1.57 µM (inactive) | 3.66 µM (inactive) | 2.39 µM (inactive) | 2.92 µM (inactive) | 5.01 µM (inactive) | 2.13 µM (inactive)
4 | O=c1c2ccccc2[nH]n1Cc1ccccc1 | > 100 µM (inactive) | > 100 µM (inactive) | > 100 µM (inactive) | > 100 µM (inactive) | > 100 | > 100 µM (inactive) | > 100 µM (inactive) | > 100 µM (inactive) | > 100 µM (inactive) | > 100 µM (inactive) | > 100 µM (inactive) | > 100 µM (inactive) | > 100 µM (inactive) | > 100 µM (inactive) | > 100 µM (inactive) | > 100 µM (inactive) | > 100 µM (inactive) | > 100 µM (inactive) | > 100 µM (inactive) | > 100 µM (inactive)
5 | NC(=O)NC(=O)c1cccc(NC(=O)CF)c1 | > 100 µM (inactive) | > 100 µM (inactive) | > 100 µM (inactive) | > 100 µM (inactive) | > 100 | > 100 µM (inactive) | > 100 µM (inactive) | > 100 µM (inactive) | > 100 µM (inactive) | > 100 µM (inactive) | > 100 µM (inactive) | > 100 µM (inactive) | 73.5 µM (inactive) | > 100 µM (inactive) | > 100 µM (inactive) | > 100 µM (inactive) | > 100 µM (inactive) | > 100 µM (inactive) | > 100 µM (inactive) | 31 µM (inactive)
6 | Nc1ccnc2c1ncn2[C@H]1C[C@H](O)[C@@H](CO)O1 | > 100 µM (inactive) | > 100 µM (inactive) | > 100 µM (inactive) | > 100 µM (inactive) | > 100 | > 100 µM (inactive) | > 100 µM (inactive) | > 100 µM (inactive) | > 100 µM (inactive) | > 100 µM (inactive) | > 100 µM (inactive) | > 100 µM (inactive) | > 100 µM (inactive) | > 100 µM (inactive) | > 100 µM (inactive) | > 100 µM (inactive) | > 100 µM (inactive) | > 100 µM (inactive) | > 100 µM (inactive) | > 100 µM (inactive)
7 | CCOC(=O)c1nc2c(nc1C(=O)OCC)C(=O)c1ccccc1C2=O | 1.87 µM (inactive) | 0.757 µM (active) | 0.601 µM (active) | 0.828 µM (active) | 1.92 | 0.427 µM (active) | 0.236 µM (active) | 1.45 µM (inactive) | 0.34 µM (active) | 2.16 µM (inactive) | 0.246 µM (active) | 0.248 µM (active) | 0.569 µM (active) | 0.31 µM (active) | 0.671 µM (active) | 2.9 µM (inactive) | 0.818 µM (active) | 0.359 µM (active) | 0.431 µM (active) | 0.333 µM (active)
8 | O=C(OCc1ccccc1)N1CCNCCNCC1 | > 100 µM (inactive) | > 100 µM (inactive) | > 100 µM (inactive) | > 100 µM (inactive) | > 100 | > 100 µM (inactive) | > 100 µM (inactive) | > 100 µM (inactive) | > 100 µM (inactive) | > 100 µM (inactive) | > 100 µM (inactive) | > 100 µM (inactive) | > 100 µM (inactive) | > 100 µM (inactive) | > 100 µM (inactive) | > 100 µM (inactive) | > 100 µM (inactive) | > 100 µM (inactive) | > 100 µM (inactive) | > 100 µM (inactive)
9 | NC1C2C(CC(=O)O)OCC=C3CN4CCC1(C(=O)C(=O)O)C4CC32 (stereo not given) | > 100 µM (inactive) | > 100 µM (inactive) | > 100 µM (inactive) | > 100 µM (inactive) | > 100 | > 100 µM (inactive) | > 100 µM (inactive) | > 100 µM (inactive) | > 100 µM (inactive) | > 100 µM (inactive) | > 100 µM (inactive) | > 100 µM (inactive) | > 100 µM (inactive) | > 100 µM (inactive) | > 100 µM (inactive) | > 100 µM (inactive) | > 100 µM (inactive) | > 100 µM (inactive) | > 100 µM (inactive) | > 100 µM (inactive)
10 | C=C1C(=O)OC2C3OC(C)(CCC(O)C3COC(C)=O)CC(OC(=O)/C(=C/C)COC(C)=O)C12 (stereo not given) | 1.58 µM (inactive) | 0.0925 µM (active) | 0.0176 µM (active) | 0.778 µM (active) | 0.061 | 0.0248 µM (active) | 0.634 µM (active) | 1.5 µM (inactive) | 0.128 µM (active) | 0.53 µM (active) | 0.109 µM (active) | 0.155 µM (active) | 2.16 µM (inactive) | 1.02 µM (active) | 0.0317 µM (active) | 1.48 µM (inactive) | 0.982 µM (active) | 9.12 µM (inactive) | 0.586 µM (active) | 0.398 µM (active)
11 | CC(C#N)N(CCc1ccccc1)C(=O)c1ccccc1 (stereo not given) | > 100 µM (inactive) | > 100 µM (inactive) | > 100 µM (inactive) | > 100 µM (inactive) | > 100 | > 100 µM (inactive) | > 100 µM (inactive) | > 100 µM (inactive) | > 100 µM (inactive) | > 100 µM (inactive) | > 100 µM (inactive) | > 100 µM (inactive) | > 100 µM (inactive) | > 100 µM (inactive) | > 100 µM (inactive) | > 100 µM (inactive) | > 100 µM (inactive) | > 100 µM (inactive) | > 100 µM (inactive) | 84.9 µM (inactive)
12 | CC(=O)CC1=C(OC(C)C)C2(OCCO2)C1O (stereo not given) | > 100 µM (inactive) | > 100 µM (inactive) | > 100 µM (inactive) | > 100 µM (inactive) | > 100 | > 100 µM (inactive) | > 100 µM (inactive) | > 100 µM (inactive) | > 100 µM (inactive) | > 100 µM (inactive) | > 100 µM (inactive) | > 100 µM (inactive) | > 100 µM (inactive) | > 100 µM (inactive) | > 100 µM (inactive) | > 100 µM (inactive) | > 100 µM (inactive) | > 100 µM (inactive) | > 100 µM (inactive) | > 100 µM (inactive)
13 | C=C(C)CC1(O)C(=O)C(OCC)=C1OCC (stereo not given) | > 100 µM (inactive) | > 100 µM (inactive) | > 100 µM (inactive) | > 100 µM (inactive) | > 100 | > 100 µM (inactive) | > 100 µM (inactive) | > 100 µM (inactive) | > 100 µM (inactive) | > 100 µM (inactive) | > 100 µM (inactive) | > 100 µM (inactive) | > 100 µM (inactive) | > 100 µM (inactive) | > 100 µM (inactive) | > 100 µM (inactive) | > 100 µM (inactive) | > 100 µM (inactive) | > 100 µM (inactive) | > 100 µM (inactive)
14 | CN(CCC(=O)O)S(=O)(=O)c1ccccc1 | > 100 µM (inactive) | > 100 µM (inactive) | > 100 µM (inactive) | > 100 µM (inactive) | > 100 | > 100 µM (inactive) | > 100 µM (inactive) | > 100 µM (inactive) | > 100 µM (inactive) | > 100 µM (inactive) | > 100 µM (inactive) | > 100 µM (inactive) | > 100 µM (inactive) | > 100 µM (inactive) | > 100 µM (inactive) | > 100 µM (inactive) | > 100 µM (inactive) | > 100 µM (inactive) | > 100 µM (inactive) | > 100 µM (inactive)
